In brackets after ≈: the same amount, converted by molar mass. Where two headings read alike, the source gives them in different places.
Legend:
[1] = test system: L1210 mouse leukemia cells; experiment: Formation of colonies of L1210 leukemia cells in soft agar (cytotoxicity in vitro); type: cell-based; settings: Mus musculus
Protocol: The cytostatic activity of the compounds according to the invention has been tested using L1210 mouse leukemia cells. Employed for this purpose was the formation of colonies of L1210 leukemia cells in agar plates. This method is used to detect the effect of the test substances on the growth behavior of the cells over 1 hour or over several generations. In this connection, with a cell cycle time of 10-12 hours about 14 consecutive generations are observed in the 7 days the test lasts. In this test, the substances having cytostatic activity according to the invention bring about a reduction in the number of colonies to be observed by comparison with an untreated control sample.
Procedure for determining the formation of colonies of L1210 leukemia cells in soft agar
500 leukemia cells per plate were incubated with various concentrations of the test substance at 37° C. for 1 hour. The cells were then washed twice with McCoy5A medium and finally, after addition of 0.3% agar, poured into Petri dishes. Controls were incubated only with fresh medium. In place of the incubation for one hour, in some cases various concentrations and test substances were mixed with the upper agar layer in order in this way to achieve continuous exposure of the cells throughout the incubation time. After the agar had solidified, the plates were incubated in an incubator at 37° C. for 7 days (5% by volume CO2, 95% relative humidity). The number of colonies which had been produced with a diameter of more than 60 μm was then counted. The results have been reported as the number of colonies in treated agar plates as a percentage of the untreated control. The IC50 was determined as a measure of the activity of the substance from the dose-effect plot obtained in this way. The results for the compounds described herein, by comparison with adriamycin, are compiled in Table 1.

[2] = test system: sensitive and resistant L1210 leukemia cells; experiment: Proliferation test (MTT reduction), cross-resistance to doxorubicin/adriamycin in vitro; type: cell-based, mouse; settings: for Cross-resistance to doxorubicin (in words): L1210, MTT, in vitro; for Degree of resistance of the cell / Cross-resistance to adriamycin (degree of cross-resistance): MTT, 3d; for Degree of resistance of the cell: IC50 resistant subline related to IC50 sensitive subline; for Cross-resistance to adriamycin (degree of cross-resistance): adriamycin = 100.0
Protocol: L1210, A 549 or HT 29 in the exponential phase of growth are incubated in a cell density of 5×10^3 cells/ml in RPMI 1640 in a 96-well microtiter plate with various concentrations of the test substance at 37° C., 5% CO2 and 95% relative humidity for 72 h. Control experiments receive merely growth medium in place of the test substance. Quadruplicate determinations are set up for each test substance and for the control. After incubation for 65 h, 50 μl of an MTT solution (2.5 mg/ml; MTT=3-(4,5-dimethylthiazol-2-yl)-2,5-diphenyltetrazoliumbromide) in phosphate-buffered saline) are added. MTT is reduced to a dark red insoluble formazan dyestuff in the presence of live cells. This reaction is complete after 7 h (L1210 cells) or after 24 h (A 549, HT 29 cells), and the supernatant medium is carefully removed by aspiration. The insoluble dyestuff is dissolved by addition of 100 μl of DMSO (dimethyl sulfoxide) and the extinction of the resulting solution at a wavelength of 492 nm is then measured for each well in a multiscan 340 CC photometer from Flow.
The ratio of the extinctions for treated and untreated cells provides a dose-effect plot from which the concentration which just kills 50% of the cells (IC50) can be read off. The coefficient of variation for repeat investigations is less than 15%.
The cross-resistance between the particular test compound and doxorubicin as standard compound is determined with the aid of the MTT test (see above for method) on sensitive and resistant L1210 leukemia cells.
The resistant cell line was established by incubation of a sensitive subline with the reference compound in concentrations which increased stepwise.
The IC50 of the test compound on the resistant subline related to the IC50 of the sensitive subline provides both the degree of resistance for the test Compound (DR(T)) and that for the reference compound (DR(R)) in accordance with the formula [formula]
In addition, the degree of cross-resistance (DCR) for the test compound is calculated in accordance with the formula [formula]
In the case where the loss of effect of the test compound on the resistant line in relation to the sensitive line is greater than that of the reference compound it is possible for the degree of cross-resistance to be above 100%.

[3] = Determination of the indicative toxicity; settings: mouse, in vivo, ip; 3xip,q3d (three intraperitoneal administrations, 3 days interval); survival day 14
Protocol: To determine the indicative toxicity, NMRI mice receive an intraperitoneal injection of various doses of the test substance dissolved in 0.5 ml of 5% strength glucose solution on day 0. Control groups receive merely 0.5 ml of 5% strength glucose solution. 5 mice are used for each concentration of the test substance. The number of mice surviving on day 14 is determined, and from this the LD5, LD50 and LD95 are determined by the Litchfield-Wilcoxon method. The toxicity (LD50 (mg/kg)) of the compounds described here is summarized in Table 3 by comparison with adriamycin.

L1210 leukemia = experiment: In vivo activity on L1210 leukemia of the mouse (antitumor activity T/C); settings: Mus musculus; for response vs control in vivo at 2.8 mg/kg: dose 2.80 mg/kg
Protocol: Ascites fluid is removed from DBA2 mice (female, 18-20 g) under sterile conditions 7 days after inoculation of tumor cells. The ascites is washed three times with PBS (phosphate-buffered saline), counted and adjusted to a cell count of 10^6 in 0.2 ml of PBS.
10^6 cells, suspended in 0.2 ml of PBS, are then injected intraperitoneally into DBF1 mice (female, 18-20 g). 6 animals per group are used for each substance concentration and as controls.
a) The animals are weighed on days 1 and 5 after injection of the test substance. A weight loss of more than 20% on day 5 is regarded as an indicator of a toxic effect of the substance.
b) At the end of the experiment (death of all animals or surviving animals on day 60) the mean survival time of the animals in the particular groups is determined as long as at least 65% of the animals were still alive on day 5 of the experiment. The mean survival time is determined only for animals which die during the course of the experiment. Long-term survivors (LTS) are not included in this calculation and are reported separately.
The antitumor activity (T/C) for the particular substance concentration is determined from the mean survival time (MSTT) in the treated groups and in the control groups (MSTC) as a percentage of the untreated controls in accordance with the following formula: [formula]
The T/C values and the treatment regimen employed in each case are compiled in Table 3, together with the indicative toxicity. T/C values greater than 125% are regarded as an indicator of a significant antitumor activity of the test substance.

[4] = Determination of the indicative toxicity; settings: mouse, in vivo; 3xiv,q3d (three intravenous administrations, 3 days interval); survival day 14
[5] = L1210, 168 h, read-out: IC50, continuous incubation, continuous incubation, 7 days, L1210 colonies in agar
[6] = L1210, read-out: IC50, 1 h incubation, 1 h incubation, then 7 days, L1210 colonies in agar
[7] = L1210, iv, read-out: T/C, L1210-leukemia in vivo
[8] = 168 h, continuous incubation, 7 days, L1210 colonies in agar, read-out: IC50, continuous incubation
[9] = 1 h incubation, then 7 days, L1210 colonies in agar, read-out: IC50, 1 h incubation

C=CCN(C)[C@H]1C[C@H](O[C@H]2C[C@](O)(CC)[C@H](O)c3c(O)c4c(c(O)c32)C(=O)c2c(O)cccc2C4=O)O[C@@H](C)[C@H]1O [Compound 1, 7-O-(3'-N-Allyl-3'-N-methyl-alpha-L-daunosaminyl)-β-rhodomycinone]
IC50 [1, 5]: 0.01 µg/mL (≈ 0.0176 µM) | IC50 [1, 6]: 0.08 µg/mL (≈ 0.14 µM) | Cross-resistance to doxorubicin (in words) [2]: not cross-resistant to doxorubicin | Degree of resistance of the cell [2]: 10.0 | Cross-resistance to adriamycin (degree of cross-resistance) [2]: 19.0% | LD50 at 336 h [3]: 1 to 5 mg/kg | response vs control in vivo at 1.19 mg/kg (L1210 leukemia; L1210, ip, read-out: T/C, L1210-leukemia in vivo): 200% | response vs control in vivo at 1 mg/kg (L1210 leukemia; [7]): 146%

C#CCN(C)[C@H]1C[C@H](O[C@H]2C[C@](O)(CC)[C@H](O)c3c(O)c4c(c(O)c32)C(=O)c2c(O)cccc2C4=O)O[C@@H](C)[C@H]1O [Compound 2, 7-O-(3'-N-methyl-3'-N-proparayl-alpha-L-daunosaminyl)-β-rhodomycinone]
IC50 [1, 8]: 0.08 µg/mL (≈ 0.141 µM) | IC50 [1, 9]: 0.3 µg/mL (≈ 0.529 µM) | response vs control in vivo at 1.2 mg/kg (L1210 leukemia; L1210, iv, 3xiv,q3d, dose 1.20 mg/kg, % of the control): 144% | LD50 at 336 h [4]: 2 to 5 mg/kg

CC[C@@]1(O)C[C@H](O[C@H]2C[C@H](N(C)Cc3ccco3)[C@H](O)[C@H](C)O2)c2c(O)c3c(c(O)c2[C@H]1O)C(=O)c1cccc(O)c1C3=O [Compound 6, 7-O-(3'-N-(2-Furfuryl)-3'-N-methyl-alpha-L-daunosaminyl)-β-rhodomycinone]
IC50 [1, 8]: 0.03 µg/mL (≈ 0.0492 µM) | IC50 [1, 9]: 0.038 µg/mL (≈ 0.0623 µM) | Cross-resistance to doxorubicin (in words) [2]: not cross-resistant to doxorubicin | Degree of resistance of the cell [2]: 2.0 | Cross-resistance to adriamycin (degree of cross-resistance) [2]: 2.0% | LD50 at 336 h [3]: 1 to 5 mg/kg | response vs control in vivo at 2.8 mg/kg (L1210 leukemia; L1210, ip, 3xip,q3d, % of the control): 141% | response vs control in vivo at 2.8 mg/kg (L1210 leukemia; L1210, iv, 3xiv,q3d, % of the control): 129%

CC[C@@]1(O)C[C@H](O[C@H]2C[C@H](N(C)Cc3ccsc3)[C@H](O)[C@H](C)O2)c2c(O)c3c(c(O)c2[C@H]1O)C(=O)c1cccc(O)c1C3=O [Compound 12, 7-O-(3'-N-Methyl-3'-N-(3-thenyl)-alpha-L-daunosaminyl)-β-rhodomycinone]
IC50 [1, 5]: 0.032 µg/mL (≈ 0.0511 µM) | IC50 [1, 6]: 0.17 µg/mL (≈ 0.272 µM) | LD50 at 336 h [4]: 2 to 5 mg/kg

CC[C@@]1(O)C[C@H](O[C@H]2C[C@H](N(C)CC3CO3)[C@H](O)[C@H](C)O2)c2c(O)c3c(c(O)c2[C@H]1O)C(=O)c1c(O)ccc(O)c1C3=O (stereo partly drawn) [Compound 14m, 7-O-(3'-N-Glycidyl-3'-N-methyl-alpha-L-daunosaminyl)-β-isorhodomycinone]
IC50 [1, 5]: 0.005 µg/mL (≈ 0.00831 µM) | IC50 [1, 6]: 0.0024 µg/mL (≈ 0.00399 µM) | response vs control in vivo at 0.13 mg/kg (L1210 leukemia; [7]): 104% | LD50 at 336 h [4]: 0.3 to 0.75 mg/kg

From US5260425A, “Anthracycline derivatives having cytostatic activity” (priority 1988, dated 1993)
